Results reported in publication PMC7463862, “Gene Cloning, Characterization, and Molecular Simulations of a Novel Recombinant Chitinase from Chitinibacter Tainanensis CT01 Appropriate for Chitin Enzymatic Hydrolysis” (Polymers, 2020).

Tested on: T1, chitinase 1198 Truncated
T1 construct: gene CT01GL001198; perhaps lacks disordered N-terminus (residues 1-201; approx. 63 kD proteolysis bands mentioned)
Test: p-nitrophenol release, absorbance at […] nm
Format: biochemical, Chitinibacter tainanensis
Conditions: standard assay 50 mM Tris-HCl pH 7.0, substrate 5-300 μM; temperature of kinetic run not stated

Km: 58.3 ± 11 µM
SMILES: CC(=O)N[C@H]1[C@H](Oc2ccc([N+](=O)[O-])cc2)O[C@H](CO)[C@@H](O[C@@H]2O[C@H](CO)[C@@H](O)[C@H](O)[C@H]2NC(C)=O)[C@@H]1O [pNP-(GlcNAc)2]
